The values below come from ChEMBL document CHEMBL1152950, “Cytotoxic activity and inhibitory effect on nitric oxide production of triterpene saponins from the roots of Physospermum verticillatum (Waldst & Kit) (Apiaceae)” (Bioorg Med Chem, 2009).

Bounds are passed on as bounds.

Data set [1] has as its system RAW264.7. Kind of data set: Antiinflammatory activity in LPS-stimulated mouse RAW264.7 cells assessed as inhibition of NO production after 24 hrs by Griess reagent method. As to conditions: for IC50: RAW264.7, 24 h; call rule not given here. Format: functional, cell-based. Background: Griess reagent forms a coloured azo dye with nitrite.
Data set [2] concerns Radical scavenging activity. Kind of data set: Antioxidant activity assessed as DPPH radical scavenging activity by spectrophotometry. Format: functional. For orientation: DPPH is a stable violet radical that fades when it is reduced.
For data set [3], the system named is Caco-2. Put plainly: Cytotoxicity against human Caco-2 cells after 48 hrs by SRB assay. The data set is classed as functional, cell-based. The following applies: for IC50: Caco-2, 48 h.
In data set [4] the test system is LNCaP. Put plainly: Cytotoxicity against human LNCAP cells after 48 hrs by SRB assay. The data set is classed as functional, cell-based. On the technique in general: The SRB assay estimates cell density from bound dye.
Data set [5] relates to A-375. Kind of data set: Cytotoxicity against human A375 cells after 48 hrs by SRB assay. The data set is classed as functional, cell-based. The following applies: for IC50: A-375, 48 h.
The subject of data set [6] is A549. Put plainly: Cytotoxicity against human A549 cells after 48 hrs by SRB assay. Format: functional, cell-based. As to conditions: A549, 48 h.
Data set [7] deals with C32. Kind of data set: Cytotoxicity against human C32 cells after 48 hrs by SRB assay. The data set is classed as functional, cell-based. The following applies: for IC50: C32, 48 h.
The test system of data set [8] is MCF7. Kind of data set: Cytotoxicity against human MCF7 cells after 48 hrs by SRB assay. Format: functional, cell-based. As to conditions: MCF7, 48 h.
In data set [9] the test system is COR-L23. Put plainly: Cytotoxicity against human COR-L23 cells after 48 hrs by SRB assay. The data set is classed as functional, cell-based. As to conditions: for IC50: COR-L23, 48 h.
Data set [10] can be described thus: Cytotoxicity against human 142BR cells after 48 hrs by SRB assay. Format: cell-based. The following applies: for IC50: Homo sapiens; for Activity: human.
For data set [11], the system named is RAW264.7. Kind of data set: Cytotoxicity against mouse RAW264.7 cells by MTT assay. The data set is classed as cell-based.
Data set [12] can be described thus: Cytotoxicity against human Huh-7D12 cells after 48 hrs by SRB assay. The data set is classed as functional, cell-based. The following applies: Huh-7D12, 48 h.
The subject of data set [13] is ACHN. Kind of data set: Cytotoxicity against human ACHN cells after 48 hrs by SRB assay. The data set is classed as functional, cell-based.
Data set [14] concerns SK-OV-3. Kind of data set: Cytotoxicity against human SKOV3 cells. Format: functional, cell-based.
Data set [15] deals with HT-29. Kind of data set: Cytotoxicity against human HT-29 cells. Format: functional, cell-based.
The subject of data set [16] is HL-60. Put plainly: Cytotoxicity against human HL60 cells. The data set is classed as functional, cell-based.
For data set [17], the system named is MCF7. Put plainly: Cytotoxicity against human MCF7 cells. The data set is classed as functional, cell-based.

In the case of `COc1ccc2c(c1)c(CC(=O)O)c(C)n2C(=O)c1ccc(Cl)cc1`, the Activity result in [1] was “Dose-dependent effect”.

As a reminder, the IC50 is the concentration that inhibits the measured activity by half. For `O=C1O[C@H]([C@@H](O)CO)C(O)=C1O` [ASCORBIC ACID], the IC50 in data set [2] (read-out: IC50) was 0.002 µM.

Turning to `C[C@H]1O[C@@H](O[C@H]2CC[C@@]3(C)[C@@H](CC[C@]4(C)[C@@H]3C=C[C@]35OC[C@@]6(CCC(C)(C)C[C@H]63)[C@@H](O)C[C@]54C)[C@]2(C)CO)[C@H](O[C@@H]2O[C@H](CO)[C@@H](O)[C@H](O)[C@H]2O)[C@@H](O[C@@H]2O[C@H](CO)[C@@H](O)[C@H](O)[C@H]2O)[C@H]1O` [BUDDLEJASAPONIN IV], the Activity result in data set [3], in [5], in [1], in [7], in data set [9] and in data set [10] was “Dose-dependent effect” throughout. In addition, the Activity entry in [13] is “Dose-dependent effect”. In addition, the IC50 is 40.7 µM in data set [3]; > 50 µM in data set [4]; 14.6 µM in [5]; 38.3 µM in data set [6]; 4.2 µM in [1]; 26.9 µM in data set [7]. Also, the IC50 in data set [8] is > 50 µM; in [9] it was 0.4 µM; in data set [10], > 50 µM; in data set [11], 10.6 µM; in data set [2] it was “Not Active”; in [12], > 50 µM. In data set [13], half-maximal inhibition (IC50) required 7.9 µM.

With `CC1(C)C[C@@H]2C3=CC[C@@H]4[C@@]5(C)CC[C@H](O[C@H]6OC[C@H](O)[C@H](O[C@@H]7O[C@H](CO)[C@@H](O)[C@H](O)[C@H]7O)[C@H]6O)C(C)(C)[C@@H]5CC[C@@]4(C)[C@]3(C)C[C@H](O)[C@@]2(CO)[C@H](OC(=O)c2ccccc2)C1` [GLOCHIERIOSIDE A], the IC50 is 22.7 µM in data set [14], 6.8 µM in data set [15], 5.5 µM in data set [16] and 29.1 µM in data set [17].

Consider `CC1(C)C[C@@H]2C3=CC[C@@H]4[C@@]5(C)CC[C@H](O[C@@H]6OC[C@@H](O)[C@H](O[C@@H]7O[C@H](CO)[C@@H](O)[C@H](O)[C@H]7O)[C@H]6O)C(C)(C)[C@@H]5CC[C@@]4(C)[C@]3(C)C[C@H](O)[C@@]2(CO)[C@H](OC(=O)c2ccccc2)C1` [GLOCHIERIOSIDE B], for which the IC50 is 16 µM in [14], 18.6 µM in data set [15], 6.6 µM in data set [16] and 36.1 µM in data set [17].

For the compound `CC(=O)O[C@H]1C(=O)[C@@]2(C)[C@H]([C@H](OC(=O)c3ccccc3)[C@]3(O)C[C@H](OC(=O)[C@H](O)[C@@H](NC(=O)c4ccccc4)c4ccccc4)C(C)=C1C3(C)C)[C@]1(OC(C)=O)CO[C@@H]1C[C@@H]2O` [PACLITAXEL], the Activity entry in [3], in data set [5], in [7], in [9], in data set [10] and in data set [13] was “Dose-dependent effect” in each case. The midpoint of inhibition in [8], the IC50, lay at 0.08 µM.

In the case of `C[C@H]1O[C@@H](O[C@H]2CC[C@@]3(C)[C@@H](CC[C@]4(C)[C@@H]3C=C[C@]35OC[C@@]6(CCC(C)(C)C[C@H]63)[C@@H](O)C[C@]54C)[C@]2(C)CO)[C@H](O)[C@@H](O[C@@H]2O[C@H](CO)[C@@H](O)[C@H](O)[C@H]2O)[C@H]1O` [SAIKOSAPONIN A], the Activity entry in data set [3], in data set [5], in data set [1], in data set [7], in data set [9] and in data set [10] was “Dose-dependent effect” throughout. In data set [13], the Activity result is “Dose-dependent effect”. In addition, the 50% inhibitory concentration (IC50) in [3] is 17.9 µM; in [4], > 50 µM; in [5], 23.9 µM; in [6] it was 17.7 µM; in [1], 102 µM; in [7], 43.5 µM. For the same compound, the IC50 is > 50 µM in data set [8]; 0.6 µM in [9]; > 50 µM in data set [10]; > 200 µM in data set [11]; “Not Active” in [2]; > 50 µM in data set [12]. For the same compound, the IC50 in data set [13] is > 50 µM.

Turning to `C[C@H]1O[C@@H](O[C@H]2CC[C@@]3(C)[C@@H](CC[C@]4(C)[C@@H]3C=C[C@]35OC[C@@]6(CCC(C)(C)C[C@H]63)[C@@H](O)C[C@]54C)[C@]2(C)CO)[C@H](O)[C@@H](O[C@@H]2O[C@H](CO)[C@@H](O)[C@H](O[C@@H]3O[C@H](CO)[C@@H](O)[C@H](O)[C@H]3O[C@@H]3O[C@H](CO)[C@@H](O)[C@H](O)[C@H]3O)[C@H]2O)[C@H]1O` [SONGAROSAPONIN D], the Activity entry in data set [3], in [5], in data set [1], in data set [7], in [9] and in data set [10] was “Dose-dependent effect” in each case. In addition, the Activity entry in [13] was “Dose-dependent effect”. Also, the IC50 in [3] was 16.7 µM; in data set [4], > 50 µM; in data set [5] it was 12.4 µM; in data set [6] it was 41.1 µM; in [1], 10.4 µM; in [7], 14 µM. The IC50 in [8] is > 50 µM; in data set [9], 0.4 µM; in [10], > 50 µM; in [11], 56.1 µM; in [2], “Not Active”; in data set [12], > 50 µM. In data set [13], this compound displayed an IC50 of 37.2 µM.

For the compound `CC[C@]1(O)C[C@@H]2CN(CCc3c([nH]c4ccccc34)[C@@](C(=O)OC)(c3cc4c(cc3OC)N(C)[C@H]3[C@@](O)(C(=O)OC)[C@H](OC(C)=O)[C@]5(CC)C=CCN6CC[C@]43[C@@H]65)C2)C1.O=S(=O)(O)O` [VINBLASTINE SULFATE], the Activity result in data set [3], in data set [5], in data set [7], in data set [9], in data set [10] and in data set [13] was “Dose-dependent effect” in each case. In addition, the IC50 worked out at 69 µM in data set [3]; 29.3 µM in data set [4]; 7.2 µM in data set [5]; 3 µM in [7]; 45.5 µM in data set [9]; 37.6 µM in data set [10]. Moreover, the IC50 in data set [12] was found to be 45.6 µM; in data set [13], 22.7 µM.
